Reference: US10112943B2, “Substituted imidazoles as gamma secretase modulators” (Janssen Pharmaceutica NV, priority 2012, dated 2018)

Experiments:
Aβ38 = experiment: In vivo efficacy: brain levels of soluble Aβ38 in non-transgenic rodents (MSD electrochemiluminescence); design: species or system mouse; conditions: dose 30 mg/kg oral dosing, soluble fraction, untreated animals (Ctrl) set at 100, typical protocol 4 h after dose
Description: (§1) To determine whether acute administration of an Aβ38 increasing agents would increase Aβ38 levels in vivo, non-transgenic rodents, e.g. mice or rats were used. Animals treated with the Aβ38 increasing agents were examined and compared to those untreated or treated with vehicle and brain levels of soluble Aβ42, Aβ40, Aβ38, and Aβ37 were quantitated by MSD electrochemiluminescence detection technology. Treatment periods varied from hours (h) to days and were adjusted based on the results of the Aβ38 increase once a time course of onset of effect could be established.
A typical protocol for measuring Aβ38 increase in vivo is shown but it is only one of many variations that could be used to optimize the levels of detectable Aβ. […] After 4 h, the animals were sacrificed and Aβ38 levels were analysed.
(§2) Blood was collected by decapitation and exsanguinations in EDTA-treated collection tubes. […] The left hemisphere was stored at −18° C. for quantitative analysis of test compound levels. […]
(§3) Mouse brains from non-transgenic animals were resuspended in 8 volumes of 0.4% DEA (diethylamine)/50 mM NaCl containing protease inhibitors (Roche-11873580001 or 04693159001) per gram of tissue, e.g. for 0.158 g brain, add 1.264 ml of 0.4% DEA. […] Nine parts of supernatant were neutralized with 1 part 0.5 M Tris-HCl pH 6.8 and used to quantify Aβ. […]

Aβ42 = experiment: In vivo efficacy: brain levels of soluble Aβ42 in non-transgenic rodents (MSD electrochemiluminescence); design: species or system mouse; conditions: dose 30 mg/kg oral dosing, soluble fraction, untreated animals (Ctrl) set at 100, typical protocol 4 h after dose
Description: as §1, with “Aβ42 lowering agent” for “Aβ38 increasing agents”, “reduce Aβ42” for “increase Aβ38”, “Meso Scale Discovery's (MSD)” for “MSD”, “Aβ42 lowering” for “Aβ38 increase”
A typical protocol for measuring Aβ42 lowering in vivo is shown but it is only one of many variations that could be used to optimize the levels of detectable Aβ. […] After 4 h, the animals were sacrificed and Aβ42 levels were analysed.
as §2, §3

Cc1cn(-c2ccc3n(c2=O)C[C@@H]2CC[C@@H](Cc4cc(C(F)(F)F)cc(C(F)(F)F)c4)N2C3=O)cn1 (single isomer, unassigned) [Compound 4, 3-[[3,5-bis(trifluoromethyl)phenyl]methyl]-2,3,11,11a-tetrahydro-8-(4-methyl-1H-imidazol-1-yl)-1H-pyrido[1,2-a]pyrrolo[1,2-d]pyrazine-5,9-dione ((3S, 11aS) or (3R, 11aR))]
Aβ38 (% vs Ctrl) _Mean (Aβ38): 136 % vs Ctrl | Aβ42 (% vs Ctrl) _Mean (Aβ42): 47 % vs Ctrl
